Patent US12240862B2, “Inhibitors of peptidylarginine deiminases” (Gilead Sciences, Inc., priority 2020, dated 2025)

Target: T1, human PAD4 (Homo sapiens, UniProt Q9UM07)
T1 construct: human PAD4 (NM_012387), A2P663, was PCR amplified; His-SUMO (N, cleaved yes); made in house; host or cells: E. coli BL21(DE3)
Experiment: In vitro PAD4 BAEE biochemical assay
Details: human PAD4, BAEE substrate; 5 nM PAD4, 2 mM calcium chloride, 3 mM BAEE; geometric mean of multiple experiments
Procedure, shortened: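 Ammonia generated from BAEE serves as the readout, measured by o-phthalaldehyde after EDTA termination. Final conditions: 5 nM human PAD4 (SUMO tag cleaved), 2 mM CaCl2, 3 mM BAEE, pH 7.6 MOPS buffer, 25 °C for 2 h following a 30-min compound preincubation.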

T1 sequence (Q9UM07 2-663): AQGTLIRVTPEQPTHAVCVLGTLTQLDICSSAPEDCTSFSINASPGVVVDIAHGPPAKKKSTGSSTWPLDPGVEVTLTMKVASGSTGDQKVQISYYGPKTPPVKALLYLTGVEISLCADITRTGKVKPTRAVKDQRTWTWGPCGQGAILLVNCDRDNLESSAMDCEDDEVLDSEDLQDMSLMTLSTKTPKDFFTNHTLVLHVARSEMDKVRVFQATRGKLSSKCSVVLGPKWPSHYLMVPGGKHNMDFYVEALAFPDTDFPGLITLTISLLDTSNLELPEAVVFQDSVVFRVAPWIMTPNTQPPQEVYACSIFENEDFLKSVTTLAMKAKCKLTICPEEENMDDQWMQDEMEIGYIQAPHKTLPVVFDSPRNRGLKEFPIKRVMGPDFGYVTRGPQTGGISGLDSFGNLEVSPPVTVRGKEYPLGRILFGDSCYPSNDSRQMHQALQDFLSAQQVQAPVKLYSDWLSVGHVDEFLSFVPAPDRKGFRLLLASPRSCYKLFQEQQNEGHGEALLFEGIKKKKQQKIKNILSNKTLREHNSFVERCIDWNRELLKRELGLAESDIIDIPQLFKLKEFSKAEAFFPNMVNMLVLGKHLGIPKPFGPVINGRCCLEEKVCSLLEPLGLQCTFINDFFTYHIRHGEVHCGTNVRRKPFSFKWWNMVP

First: COc1cc(C(=O)N2[C@H]3CC[C@@H]2[C@H](N)C3)cc2nc(-c3cc4ccc([C@@H](C)NC(=O)[C@@H]5CC5(F)F)nc4n3CC3CC3)c(C)n12 [Example 130, (1~{S})-~{N}-[(1~{R})-1-[2-[7-[(1~{R},2~{R},4~{S})-2-amino-7-azabicyclo [2.2.1]heptane-7-carbonyl]-5-methoxy-3-methylimidazo [1,2-a]pyridin-2-yl]-1-(cyclopropylmethyl)pyrrolo [2,3-b]pyridin-6-yl]ethyl]-2,2-difluorocyclopropane-1-carboxamide]
Second: COc1cc(C(=O)N2[C@H]3CC[C@@H]2[C@H](N)C3)cc2nc(-c3cc4ccc([C@@H](C)NC(=O)[C@H]5CC5(F)F)nc4n3CC3CC3)c(C)n12 [Example 131, (1~{R})-~{N}-[(1~{R})-1-[2-[7-[(1~{R},2~{R},4~{S})-2-amino-7-azabicyclo[2.2.1]heptane-7-carbonyl]-5-methoxy-3-methylimidazo [1,2-a]pyridin-2-yl]-1-(cyclopropylmethyl)pyrrolo [2,3-b]pyridin-6-yl]ethyl]-2,2-difluorocyclopropane-1-carboxamide]
The IC50 of the first is 1.6-fold higher: 47.2 nM for the first, 30.4 nM for the second.

First: COc1cc(C(=O)N2[C@H]3CC[C@@H]2[C@H](N)C3)cc2nc(-c3cc4ccc([C@@H](C)NC(=O)C56CC(CO5)C6)nc4n3CC3CC3)c(C)n12 [Example 132, ~{N}-[(1~{R})-1-[2-[7-[(1~{R},2~{R},4~{S})-2-amino-7-azabicyclo[2.2.1]heptane-7-carbonyl]-5-methoxy-3-methylimidazo [1,2-a]pyridin-2-yl]-1-(cyclopropylmethyl)pyrrolo [2,3-b]pyridin-6-yl]ethyl]-2-oxabicyclo[2.1.1]hexane-1-carboxamide]
Second: COc1cc(C(=O)N2[C@H]3CC[C@@H]2[C@H](N)C3)cc2nc(-c3cc4ccc([C@@H](C)NC(=O)C5(F)CC5)nc4n3CC3CC3)c(C)n12 [Example 136, ~{N}-[(1~{R})-1-[2-[7-[(1~{R},2~{R},4~{S})-2-amino-7-azabicyclo[2.2.1]heptane-7-carbonyl]-5-methoxy-3-methylimidazo [1,2-a]pyridin-2-yl]-1-(cyclopropylmethyl)pyrrolo [2,3-b]pyridin-6-yl]ethyl]-1-fluorocyclopropane-1-carboxamide]
The IC50 of the first is 4.9-fold higher: 698 nM for the first, 143 nM for the second.

Compared with COc1cc(C(=O)N2[C@H]3CC[C@@H]2[C@H](N)C3)cc2nc(-c3cc4ccc([C@@H](C)NC(=O)C56CC(Cl)(C5)C6)nc4n3CC3CC3)c(C)n12 [Example 133, ~{N}-[(1~{R})-1-[2-[7-[(1~{R},2~{R},4~{S})-2-amino-7-azabicyclo[2.2.1]heptane-7-carbonyl]-5-methoxy-3-methylimidazo [1,2-a]pyridin-2-yl]-1-(cyclopropylmethyl)pyrrolo [2,3-b]pyridin-6-yl]ethyl]-3-chlorobicyclo[1.1.1]pentane-1-carboxamide], COc1cc(C(=O)N2[C@H]3CC[C@@H]2[C@H](N)C3)cc2nc(-c3cc4ccc([C@@H](C)NC(=O)C56CC(c7ccccc7)(C5)C6)nc4n3CC3CC3)c(C)n12 [Example 147, ~{N}-[(1~{R})-1-[2-[7-[(1~{R},2~{R},4~{S})-2-amino-7-azabicyclo[2.2.1]heptane-7-carbonyl]-5-methoxy-3-methylimidazo [1,2-a]pyridin-2-yl]-1-(cyclopropylmethyl)pyrrolo [2,3-b]pyridin-6-yl]ethyl]-3-phenylbicyclo[1.1.1]pentane-1-carboxamide] is 7.2-fold higher in IC50: 56.1 nM for the first, 403 nM for the second. The first is the more potent here.

Compared with COc1cc(C(=O)N2[C@H]3CC[C@@H]2[C@H](N)C3)cc2nc(-c3cc4ccc([C@@H](C)NC(=O)C(C)(C)CO)nc4n3CC3CC3)c(C)n12 [Example 134], COc1cc(C(=O)N2[C@H]3CC[C@@H]2[C@H](N)C3)cc2nc(-c3cc4ccc([C@@H](C)NC(=O)C5(C(F)F)CC5)nc4n3CC3CC3)c(C)n12 [Example 137, ~{N}-[(1~{R})-1-[2-[7-[(1~{R},2~{R},4~{S})-2-amino-7-azabicyclo[2.2.1]heptane-7-carbonyl]-5-methoxy-3-methylimidazo [1,2-a]pyridin-2-yl]-1-(cyclopropylmethyl)pyrrolo [2,3-b]pyridin-6-yl]ethyl]-1-(difluoromethyl) cyclopropane-1-carboxamide] is 1.6-fold higher in IC50: 66.5 nM for the first, 107 nM for the second. The first is the more potent here.

First: COc1cc(C(=O)N2[C@H]3CC[C@@H]2[C@H](N)C3)cc2nc(-c3cc4ccc([C@@H](C)NC(=O)C5(C)CCOCC5)nc4n3CC3CC3)c(C)n12 [Example 135, ~{N}-[(1~{R})-1-[2-[7-[(1~{R},2~{R},4~{S})-2-amino-7-azabicyclo[2.2.1]heptane-7-carbonyl]-5-methoxy-3-methylimidazo [1,2-a]pyridin-2-yl]-1-(cyclopropylmethyl)pyrrolo [2,3-b]pyridin-6-yl]ethyl]-4-methyloxane-4-carboxamide]
Second: COc1cc(C(=O)N2[C@H]3CC[C@@H]2[C@H](N)C3)cc2nc(-c3cc4ccc([C@@H](C)NC(=O)C5(COC(F)(F)F)CC5)nc4n3CC3CC3)c(C)n12 [Example 138, ~{N}-[(1~{R})-1-[2-[7-[(1~{R},2~{R},4~{S})-2-amino-7-azabicyclo[2.2.1]heptane-7-carbonyl]-5-methoxy-3-methylimidazo [1,2-a]pyridin-2-yl]-1-(cyclopropylmethyl)pyrrolo [2,3-b]pyridin-6-yl]ethyl]-1-(trifluoromethoxymethyl) cyclopropane-1-carboxamide]
The IC50 of the first is 3.1-fold lower: 106 nM for the first, 328 nM for the second.

COc1cc(C(=O)N2CCC[C@@H](N)C2)cc2nc(-c3cc4ccc([C@@H](C)NC(=O)C56CC(C#N)(C5)C6)nc4n3CC3CC3)c(C3CC3)n12 [Example 139, ~{N}-[(1~{R})-1-[2-[7-[(3~{R})-3-aminopiperidine-1-carbonyl]-3-cyclopropyl-5-methoxyimidazo [1,2-a]pyridin-2-yl]-1-(cyclopropylmethyl)pyrrolo [2,3-b]pyridin-6-yl]ethyl]-3-cyanobicyclo[1.1.1]pentane-1-carboxamide] and COc1cc(C(=O)N2CCC[C@@H](N)C2)cc2nc(-c3cc4ccc([C@@H](C)NC(=O)C56CC(F)(C5)C6)nc4n3CC3CC3)c(C3CC3)n12 [Example 145, ~{N}-[(1~{R})-1-[2-[7-[(3~{R})-3-aminopiperidine-1-carbonyl]-3-cyclopropyl-5-methoxyimidazo [1,2-a]pyridin-2-yl]-1-(cyclopropylmethyl)pyrrolo [2,3-b]pyridin-6-yl]ethyl]-3-fluorobicyclo[1.1.1]pentane-1-carboxamide] are within 1.5-fold of each other in IC50: 208 nM for the first, 215 nM for the second.

COc1cc(C(=O)N2[C@H]3CC[C@@H]2[C@H](N)C3)cc2nc(-c3cc4ccc([C@@H](C)NC(=O)C56CC(C#N)(C5)C6)nc4n3CC3CC3)c(C3CC3)n12 [Example 140, ~{N}-[(1~{R})-1-[2-[7-[(1~{R},2~{R},4~{S})-2-amino-7-azabicyclo[2.2.1]heptane-7-carbonyl]-3-cyclopropyl-5-methoxyimidazo[1,2-a]pyridin-2-yl]-1-(cyclopropylmethyl)pyrrolo[2,3-b]pyridin-6-yl]ethyl]-3-cyanobicyclo[1.1.1]pentane-1-carboxamide] and COc1cc(C(=O)N2[C@H]3CC[C@@H]2[C@H](N)C3)cc2nc(-c3cc4ccc([C@@H](C)NC(=O)C56CC(F)(C5)C6)nc4n3CC3CC3)c(C3CC3)n12 [Example 144, ~{N}-[(1~{R})-1-[2-[7-[(1~{R},2~{R},4~{S})-2-amino-7-azabicyclo[2.2.1]heptane-7-carbonyl]-3-cyclopropyl-5-methoxyimidazo[1,2-a]pyridin-2-yl]-1-(cyclopropylmethyl)pyrrolo [2,3-b]pyridin-6-yl]ethyl]-3-fluorobicyclo[1.1.1]pentane-1-carboxamide] are within 1.5-fold of each other in IC50: 118 nM for the first, 130 nM for the second.

First: COc1cc(C(=O)N2CCC[C@@H](N)C2)cc2nc(-c3cc4ccc([C@@H](C)NC(=O)c5ccccc5)nc4n3CC3CC3)c(C3CC3)n12 [Example 141, ~{N}-[(1~{R})-1-[2-[7-[(3~{R})-3-aminopiperidine-1-carbonyl]-3-cyclopropyl-5-methoxyimidazo [1,2-a]pyridin-2-yl]-1-(cyclopropylmethyl)pyrrolo [2,3-b]pyridin-6-yl]ethyl] benzamide]
Second: COc1cc(C(=O)N2[C@H]3CC[C@@H]2[C@H](N)C3)cc2nc(-c3cc4ccc([C@@H](C)NC(=O)c5ccccc5)nc4n3CC3CC3)c(C3CC3)n12 [Example 142, ~{N}-[(1~{R})-1-[2-[7-[(1~{R},2~{R},4~{S})-2-amino-7-azabicyclo[2.2.1]heptane-7-carbonyl]-3-cyclopropyl-5-methoxyimidazo[1,2-a]pyridin-2-yl]-1-(cyclopropylmethyl)pyrrolo [2,3-b]pyridin-6-yl]ethyl] benzamide]
The IC50 of the first is 1.5-fold higher: 187 nM for the first, 121 nM for the second. The second is the more potent here.

COc1cc(C(=O)N2CCC[C@@H](N)C2)cc2nc(-c3cc4ccc([C@@H](C)NC(=O)C(C)(C)C)nc4n3CC3CC3)c(C3CC3)n12 [Example 143, ~{N}-[(1~{R})-1-[2-[7-[(3~{R})-3-aminopiperidine-1-carbonyl]-3-cyclopropyl-5-methoxyimidazo [1,2-a]pyridin-2-yl]-1-(cyclopropylmethyl)pyrrolo [2,3-b]pyridin-6-yl]ethyl]-2,2-dimethylpropanamide] and COc1cc(C(=O)N2CCC[C@@H](N)C2)cc2nc(-c3cc4ccc([C@@H](C)NC(=O)N5CC(O)C5)nc4n3CC3CC3)c(C3CC3)n12 [Example 146, ~{N}-[(1~{R})-1-[2-[7-[(3~{R})-3-aminopiperidine-1-carbonyl]-3-cyclopropyl-5-methoxyimidazo [1,2-a]pyridin-2-yl]-1-(cyclopropylmethyl)pyrrolo [2,3-b]pyridin-6-yl]ethyl]-3-hydroxyazetidine-1-carboxamide] are within 1.5-fold of each other in IC50: 139 nM for the first, 160 nM for the second.
